Values after ≈ are worked out from the molar mass of the structure shown.
How the values were obtained:
Type in all cases: functional
Escherichia coli [1] = assay: Antimicrobial activity against extended-spectrum beta lactamase producing Escherichia coli assessed as resistant isolates by Etest
Klebsiella pneumoniae [2] = assay: Antimicrobial activity against extended-spectrum beta lactamase producing Klebsiella pneumoniae assessed as resistant isolates by Etest
Escherichia coli [3] = assay: Antimicrobial activity against extended-spectrum beta lactamase producing Escherichia coli expressing beta-lactamase CTX-M-3, CTX-M-15 and CTX-M-55 gene assessed as susceptible isolates by Etest
Klebsiella pneumoniae [4] = assay: Antimicrobial activity against extended-spectrum beta lactamase producing Klebsiella pneumoniae expressing beta-lactamase CTX-M-3, CTX-M-15 and CTX-M-55 gene assessed as susceptible isolates by Etest
Escherichia coli [5] = assay: Antimicrobial activity against extended-spectrum beta lactamase producing Escherichia coli expressing beta-lactamase CTX-M-3, CTX-M-15 and CTX-M-55 and other bla gene assessed as susceptible isolates by Etest
Klebsiella pneumoniae [6] = assay: Antimicrobial activity against extended-spectrum beta lactamase producing Klebsiella pneumoniae expressing beta-lactamase CTX-M-3, CTX-M-15 and CTX-M-55 and other bla gene assessed as susceptible isolates by Etest
Escherichia coli [7] = assay: Antimicrobial activity against extended-spectrum beta lactamase producing Escherichia coli expressing beta-lactamase CTX-M-14 and CTX-M-27 gene assessed as susceptible isolates by Etest; settings: pooled result: one value given for 2 cell lines, strains, targets or settings
Escherichia coli [8] = assay: Antimicrobial activity against extended-spectrum beta lactamase producing Escherichia coli expressing beta-lactamase CTX-M-14 and CTX-M-27 gene and other bla gene assessed as susceptible isolates by Etest; settings: pooled result: one value given for 2 cell lines, strains, targets or settings
Escherichia coli [9] = assay: Antimicrobial activity against extended-spectrum beta lactamase producing Escherichia coli by Etest
Klebsiella pneumoniae [10] = assay: Antimicrobial activity against extended-spectrum beta lactamase producing Klebsiella pneumoniae by Etest
Escherichia coli [11] = assay: Antimicrobial activity against extended-spectrum beta lactamase producing Escherichia coli expressing beta-lactamase CTX-M-3, CTX-M-15 and CTX-M-55 gene by Etest
Klebsiella pneumoniae [12] = assay: Antimicrobial activity against extended-spectrum beta lactamase producing Klebsiella pneumoniae expressing beta-lactamase CTX-M-3, CTX-M-15 and CTX-M-55 gene by Etest
Escherichia coli [13] = assay: Antimicrobial activity against extended-spectrum beta lactamase producing Escherichia coli expressing beta-lactamase CTX-M-3, CTX-M-15 and CTX-M-55 and other bla gene by Etest
Klebsiella pneumoniae [14] = assay: Antimicrobial activity against extended-spectrum beta lactamase producing Klebsiella pneumoniae expressing beta-lactamase CTX-M-3, CTX-M-15 and CTX-M-55 and other bla gene by Etest
Escherichia coli [15] = assay: Antimicrobial activity against extended-spectrum beta lactamase producing Escherichia coli expressing beta-lactamase CTX-M-14 and CTX-M-27 gene by Etest
Klebsiella pneumoniae [16] = assay: Antimicrobial activity against extended-spectrum beta lactamase producing Klebsiella pneumoniae expressing beta-lactamase CTX-M-14 and CTX-M-27 gene by Etest
Escherichia coli [17] = assay: Antimicrobial activity against extended-spectrum beta lactamase producing Escherichia coli expressing beta-lactamase CTX-M-14 and CTX-M-27 and other bla gene by Etest
Klebsiella pneumoniae [18] = assay: Antimicrobial activity against extended-spectrum beta lactamase producing Klebsiella pneumoniae expressing beta-lactamase CTX-M-14 and CTX-M-27 gene and other bla gene by Etest

Compound | Activity (Escherichia coli [1]) | Activity (Klebsiella pneumoniae [2]) | Activity (Escherichia coli [3]) | Activity (Klebsiella pneumoniae [4]) | Activity (Escherichia coli [5]) | Activity (Klebsiella pneumoniae [6]) | Activity (Escherichia coli [7]) | Activity (Escherichia coli [8]) | MIC50 (Escherichia coli [9]) | MIC90 (Escherichia coli [9]) | MIC50 (Klebsiella pneumoniae [10]) | MIC90 (Klebsiella pneumoniae [10]) | MIC90 (Escherichia coli [11]) | MIC90 (Klebsiella pneumoniae [12]) | MIC90 (Escherichia coli [13]) | MIC90 (Klebsiella pneumoniae [14]) | MIC90 (Escherichia coli [15]) | MIC90 (Klebsiella pneumoniae [16]) | MIC90 (Escherichia coli [17]) | MIC90 (Klebsiella pneumoniae [18])
NCC[C@H](O)C(=O)N[C@@H]1C[C@H](N)[C@@H](O[C@H]2O[C@H](CN)[C@@H](O)[C@H](O)[C@H]2O)[C@H](O)[C@H]1O[C@H]1O[C@H](CO)[C@@H](O)[C@H](N)[C@H]1O [AMIKACIN] | 12.5% | 28.6% | 81% | 81% | 81% | 81% | 83.3% | 78.9% |  |  |  |  |  |  |  |  |  |  |  | 
CO/N=C(\C(=O)N[C@@H]1C(=O)N2C(C(=O)O)=C(COC(C)=O)CS[C@H]12)c1csc(N)n1 [CEFOTAXIME] |  |  |  |  |  |  |  |  | 256 µg/mL (≈ 562 µM) | > 256 µg/mL | 128 µg/mL (≈ 281 µM) | > 256 µg/mL | > 256 µg/mL | > 256 µg/mL | > 256 µg/mL | > 256 µg/mL | 128 µg/mL (≈ 281 µM) | 128 µg/mL (≈ 281 µM) | 256 µg/mL (≈ 562 µM) | 256 µg/mL (≈ 562 µM)
CC(C)(O/N=C(\C(=O)N[C@@H]1C(=O)N2C(C(=O)[O-])=C(C[n+]3ccccc3)CS[C@H]12)c1csc(N)n1)C(=O)O [CEFTAZIDIME] |  |  |  |  |  |  |  |  | 32 µg/mL (≈ 58.5 µM) | 256 µg/mL (≈ 468 µM) | 128 µg/mL (≈ 234 µM) | > 256 µg/mL | 256 µg/mL (≈ 468 µM) | 256 µg/mL (≈ 468 µM) | > 256 µg/mL | > 256 µg/mL | 16 µg/mL (≈ 29.3 µM) | 16 µg/mL (≈ 29.3 µM) | > 256 µg/mL | > 256 µg/mL
CO/N=C(\C(=O)N[C@@H]1C(=O)N2C(C(=O)O)=C(CSc3nc(=O)c(O)nn3C)CS[C@H]12)c1csc(N)n1 [CEFTRIAXONE] |  |  |  |  |  |  |  |  | > 256 µg/mL | > 256 µg/mL | > 256 µg/mL | > 256 µg/mL | > 256 µg/mL | > 256 µg/mL | > 256 µg/mL | > 256 µg/mL | > 256 µg/mL | > 256 µg/mL | > 256 µg/mL | > 256 µg/mL
O=C(O)c1cn(C2CC2)c2cc(N3CCNCC3)c(F)cc2c1=O [CIPROFLOXACIN] | 78.1% | 76.6% | 20.4% | 20.4% | 11.1% | 11.1% | 25.7% | 8.3% |  |  |  |  |  |  |  |  |  |  |  | 
C[C@@H](O)[C@H]1C(=O)N2C(C(=O)O)=C(S[C@@H]3CN[C@H](C(=O)Nc4cccc(C(=O)O)c4)C3)[C@H](C)[C@H]12 [ERTAPENEM] |  |  |  |  |  |  |  |  | 0.094 µg/mL (≈ 0.198 µM) | 0.38 µg/mL (≈ 0.799 µM) | 0.094 µg/mL (≈ 0.198 µM) | 0.38 µg/mL (≈ 0.799 µM) | 0.38 µg/mL (≈ 0.799 µM) | 0.38 µg/mL (≈ 0.799 µM) | 0.5 µg/mL (≈ 1.05 µM) | 0.5 µg/mL (≈ 1.05 µM) | 0.19 µg/mL (≈ 0.4 µM) | 0.19 µg/mL (≈ 0.4 µM) | 0.25 µg/mL (≈ 0.526 µM) | 0.25 µg/mL (≈ 0.526 µM)
C[C@@H](O)[C@H]1C(=O)N2C(C(=O)O)=C(SCCNC=N)C[C@H]12 [IMIPENEM ANHYDROUS] |  |  |  |  |  |  |  |  |  |  | 0.25 µg/mL (≈ 0.835 µM) | 0.38 µg/mL (≈ 1.27 µM) | 0.5 µg/mL (≈ 1.67 µM) | 0.5 µg/mL (≈ 1.67 µM) | 0.38 µg/mL (≈ 1.27 µM) | 0.38 µg/mL (≈ 1.27 µM) | 0.5 µg/mL (≈ 1.67 µM) | 0.5 µg/mL (≈ 1.67 µM) | 0.38 µg/mL (≈ 1.27 µM) | 0.38 µg/mL (≈ 1.27 µM)
C[C@@H](O)[C@H]1C(=O)N2C(C(=O)O)=C(S[C@@H]3CN[C@H](C(=O)N(C)C)C3)[C@H](C)[C@H]12 [MEROPENEM] |  |  |  |  |  |  |  |  | 0.047 µg/mL (≈ 0.123 µM) | 0.125 µg/mL (≈ 0.326 µM) | 0.047 µg/mL (≈ 0.123 µM) | 0.125 µg/mL (≈ 0.326 µM) | 0.19 µg/mL (≈ 0.495 µM) | 0.19 µg/mL (≈ 0.495 µM) | 0.125 µg/mL (≈ 0.326 µM) | 0.125 µg/mL (≈ 0.326 µM) | 0.094 µg/mL (≈ 0.245 µM) | 0.094 µg/mL (≈ 0.245 µM) | 0.064 µg/mL (≈ 0.167 µM) | 0.064 µg/mL (≈ 0.167 µM)
CN(C)[C@@H]1C(O)=C(C(N)=O)C(=O)[C@@]2(O)C(O)=C3C(=O)c4c(O)cccc4[C@@](C)(O)[C@H]3C[C@@H]12 [TETRACYCLINE] | 87.5% | 85.7% | 4.8% | 4.8% | 4.9% | 4.9% | 16.7% | 5.9% |  |  |  |  |  |  |  |  |  |  |  | 
GENTAMICIN | 66.3% | 76.4% | 24.1% | 24.1% | 19% | 19% | 33.3% | 30.3% |  |  |  |  |  |  |  |  |  |  |  | 

Reference: ChEMBL document CHEMBL1275460, “Molecular characterization and epidemiology of extended-spectrum-beta-lactamase-producing Escherichia coli and Klebsiella pneumoniae isolates causing health care-associated infection in Thailand, where the CTX-M family is endemic” (2008)
